Where “and” joins values, the source holds several entries; their conditions need not be identical. Equal values may be shown once.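 Where inhibition never reached the appropriate level, the endpoint shown equals the highest concentration tested. Otherwise, values were interpolated linearly from a five-concentration, 48-hour dose response in 96-well plates. The concentration for 50% growth inhibition is given as GI50. TGI marks complete inhibition of growth.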
Experiments:
Assay in all cases: NCI anticancer screen, dose series, 48 h
ACHN renal = system: ACHN renal
HOP-62 NSCLC = system: HOP-62 NSCLC
HOP-92 NSCLC = system: HOP-92 NSCLC
IGROV1 ovarian = system: IGROV1 ovarian
MALME-3M melanoma = system: MALME-3M melanoma
MOLT-4 leukemia = system: MOLT-4 leukemia
NCI-H460 lung = system: NCI-H460 lung
SR leukemia = system: SR leukemia
TK-10 renal = system: TK-10 renal
UO-31 renal = system: UO-31 renal

Structure (SMILES) | GI50 (ACHN renal) | TGI (ACHN renal) | GI50 (HOP-62 NSCLC) | TGI (HOP-62 NSCLC) | GI50 (HOP-92 NSCLC) | TGI (HOP-92 NSCLC) | GI50 (IGROV1 ovarian) | TGI (IGROV1 ovarian) | GI50 (MALME-3M melanoma) [µM] | TGI (MALME-3M melanoma) [µM] | GI50 (MOLT-4 leukemia) | TGI (MOLT-4 leukemia) | GI50 (NCI-H460 lung) | TGI (NCI-H460 lung) | GI50 (SR leukemia) | TGI (SR leukemia) | GI50 (TK-10 renal) | TGI (TK-10 renal) | GI50 (UO-31 renal) | TGI (UO-31 renal)
COc1cc2c(cc1OCCCCNC(=O)c1cc3ccccc3[nH]1)N=CC1CCCN1C2=O (configuration not stated) | 22.6 µM | > 100 µM | 31.5 µM | > 100 µM | 12.2 µM | 75.4 µM | 18.1 µM | > 100 µM | 20 | 47.7 | 8.72 µM | > 100 µM | 11.9 µM | 65.1 µM | > 100 µM | > 100 µM | 14.7 µM | 33.6 µM | 7.16 µM | 74.1 µM
COc1ccc2c(=O)c([Se]c3coc4cc(OC)ccc4c3=O)coc2c1 |  | > 100 µM |  | > 100 µM |  | > 100 µM |  | > 100 µM |  | > 100 |  | > 100 µM |  | > 100 µM |  | > 100 µM |  | > 100 µM |  | > 100 µM
CC/C(=N\Nc1nc2ccccc2n1C)c1ccccn1 | < 0.016 µM | 6.28 µM | 0.175 µM | 3.34 µM | 0.184 µM | 4.82 µM | 0.0294 µM | 7.76 µM | 0.127 | 10.3 | < 0.0174 µM | 7.47 µM | 0.114 µM | 1.82 µM | 0.0428 µM | 12.4 µM | 0.5 µM | 12.3 µM | 0.0761 µM | 1.16 µM
CCCNc1nc(N(C)O)nc(N(C)O)n1 | 1.03 µM | > 100 µM | 1.82 µM | 97.6 µM | 4.75 µM | > 100 µM | 2.13 µM | 14.6 µM | 2.96 | 32.5 | 0.194 µM | > 28 µM | 0.563 µM | > 56.8 µM | 0.149 µM | > 30.1 µM | 1.44 µM | > 100 µM | 0.981 µM | > 40.8 µM
Cc1cc2c3ccccc3n(C)c2c2c1C(=O)c1ccccc1C2=O |  |  |  | 53.6 µM |  | 35 µM |  | 54.3 µM |  | 35.4 |  | 27.4 µM |  |  |  | 22.5 µM |  | 81.3 µM |  | 27.4 µM
CC1=C(N2CC2)C(=O)C(CO)=C(N2CC2)C1=O | 0.00047 µM |  | 0.0219 µM | 0.0569 µM | 0.0183 µM and 0.018 µM | 0.247 µM and 0.28 µM | 0.0168 µM | 0.0703 µM and 0.0518 µM |  | 0.116 |  | 5.88 µM | 0.00476 µM | 1.85 µM |  | > 49 µM | 0.0405 µM | 0.721 µM and 0.309 µM | 0.00512 µM | 0.0231 µM and 0.0319 µM
COc1ccc(CN2c3ccccc3Sc3ccccc32)cc1F | 1.25 µM | > 100 µM | 4.34 µM | > 100 µM | 1.25 µM | > 38.9 µM | 1.45 µM | > 100 µM | > 100 | > 100 | 0.438 µM | > 100 µM | 0.379 µM | > 100 µM | 0.36 µM | > 42.7 µM | > 100 µM | > 100 µM | 1.12 µM | > 100 µM
COc1c(OC(C)=O)cc2c(OC(C)=O)c1CC(C)CC(OC)C(O)C(C)/C=C(\C)C(OC(N)=O)C(OC)/C=C\C=C(/C)C(=O)N2 (configuration not stated) |  | > 100 µM |  | > 100 µM |  | > 100 µM |  | > 100 µM |  | > 100 |  | > 87.4 µM |  | > 100 µM |  | > 72.6 µM |  | > 100 µM |  | > 100 µM
CCN1CCN(CCOc2ccc(CNc3ccc4nc(CCC5CCCCC5)[nH]c4c3)cc2)CC1 | 2.79 µM | 7.96 µM | 1.99 µM | 4.63 µM | 0.925 µM | 3.09 µM | 2.83 µM | 11 µM | 1.57 | 3.08 | 1.87 µM | 6.09 µM | 2.47 µM | 7.27 µM | 0.303 µM | 0.941 µM | 2.93 µM | 8.06 µM | 1.42 µM | 2.79 µM
O=C1C2=C(C(=O)c3c(O)ccc(O)c31)N(c1ccc(N3CCOCC3)nc1)Cc1ccccc1O2 | 0.0534 µM | 0.237 µM | 1.52 µM | 3.97 µM | 0.202 µM | 0.469 µM | 0.277 µM | 1.14 µM | 0.134 | 0.418 | 0.0872 µM |  | 1.31 µM | 4.06 µM | 0.108 µM | > 100 µM | 0.339 µM | 0.947 µM | 0.131 µM | 0.429 µM
Oc1nc(NCCc2ccccc2)sc1/C=C1\C=Nc2ncccc21 | 2.45 µM and 2.7 µM | 19.1 µM and 10.8 µM | 2.47 µM and 3.43 µM | 7.86 µM and 9.47 µM | 1.3 µM and 1.43 µM | 8.82 µM and 7.62 µM | 2.51 µM and 3.03 µM | 18 µM and 50.4 µM | 3.28 | 8.93 | 3.17 µM and 2.77 µM | 11.6 µM and 11 µM | 3.01 µM and 3.16 µM | 10.2 µM and 13.6 µM | 0.397 µM and 0.554 µM | 17.7 µM and 7.79 µM | 3.59 µM and 3.04 µM | 15.5 µM and 17.7 µM | 3.53 µM and 3.83 µM | 12.4 µM and 84.6 µM
O=C(CCCn1c2c(sc3ncccc32)c(=O)n2nnc(-c3ccccc3)c12)NCCc1cnc[nH]1 | 15.3 µM | 31 µM | 16.5 µM | 32 µM | 17 µM | 39.5 µM | 9.54 µM | 27.6 µM | 18.1 | 37 | 2.22 µM | 24.2 µM | 3.66 µM | 13.1 µM | 2.52 µM | 6.14 µM | 13.6 µM | 27.9 µM | 11.9 µM | 26.7 µM
O=c1[nH]c(=S)[nH]c2c1sc(=S)n2-c1ccccc1 |  | > 100 µM |  | > 100 µM |  | > 100 µM |  | > 100 µM |  | > 100 |  | > 100 µM |  | > 100 µM |  | > 100 µM |  | > 100 µM |  | > 100 µM
C=C1CC[C@@H]2C(C)(C)[C@@H](O)CC[C@@]2(C)[C@@H]1COc1ccc2ccc(=O)oc2c1 | 14.3 µM | 29.2 µM | 15.2 µM | 35.6 µM | 8.62 µM | 24.3 µM | 15.1 µM | 31.9 µM |  | 31.2 | 7.22 µM | 35.6 µM | 14.9 µM | 32.4 µM | 19.4 µM | 83.9 µM | 15.3 µM | 43.4 µM | 10.2 µM | 22.9 µM
N#Cc1ccc(Oc2nccc(-c3c(-c4ccc(F)cc4)ncn3C3CCNCC3)n2)cc1 | > 23.7 µM | > 25 µM | > 25 µM | > 25 µM | 4.04 µM | > 25 µM | > 25 µM | > 25 µM | > 16.6 | > 25 | 8.01 µM | 20.8 µM | 14 µM | > 25 µM | 4.54 µM | 11.3 µM | > 25 µM | > 25 µM | 11.9 µM | > 25 µM
CCC(=O)C1=C(OC(C)=O)C2Cc3c(n(C)c4ccccc34)C(C1)N2C (configuration not stated) |  | > 100 µM |  |  |  | > 100 µM |  | > 100 µM |  | > 100 |  | > 100 µM |  | > 100 µM |  | > 100 µM |  | > 100 µM |  | > 100 µM
CCCc1cc(=O)oc2c(C(=O)CC(C)C)c(O)c(CC=C(C)C)c(O)c12 | 7.53 µM | 47.1 µM | 17.6 µM | > 50 µM | 1.25 µM | 4.15 µM | 15.4 µM | > 50 µM | 9.89 | 32.4 | 11.7 µM | > 50 µM | 8.03 µM | > 50 µM | 16.2 µM | > 50 µM | 12.2 µM | > 50 µM | 12.1 µM | > 50 µM
CN(C)CC(C(=O)c1ccccc1)c1ccccc1 (configuration not stated) | 1.36 µM | 2.65 µM | 11.3 µM | 23.5 µM | 2.28 µM | 9.54 µM | 2.2 µM | 5.47 µM | 1.69 | 3.62 | 4.2 µM | 31.3 µM | 3.93 µM | 16 µM | 2.28 µM | 7.51 µM | 1.3 µM | 2.67 µM | 1.49 µM | 3.02 µM
CCOP(=O)(CCP(=O)(OCC)OCC)OCC.C[CH2][Sn]([Cl])([Cl])[CH2]C | 36.7 µM | 57.1 µM | > 91.3 µM | > 100 µM | 19.7 µM | 39.2 µM | > 100 µM | > 100 µM | 15.3 | 30.6 | 39.9 µM | > 100 µM | > 81.8 µM | > 100 µM | 38.2 µM | > 100 µM | 30.6 µM | 52 µM | > 54.2 µM | > 66.5 µM
C=CCC(C(=O)OC)C1(C(=O)OC)c2[nH]c3ccccc3c2CCN1Cc1ccccc1 (configuration not stated) |  |  |  | > 100 µM |  | 74.6 µM |  | > 100 µM |  | > 100 |  | > 100 µM |  |  |  | > 100 µM |  | > 100 µM |  | > 100 µM
C=CCN1C(=O)/C(=c2\sc3n(c2=O)C2C(NN=3)N(CC)C(=O)N2CC)c2ccccc21 (configuration not stated) | 0.834 µM | > 100 µM | 1.02 µM | > 53.5 µM | 0.842 µM | 9.2 µM | 0.978 µM | > 100 µM | 1.28 | > 100 | 1.71 µM | > 100 µM | 0.413 µM | > 100 µM | 0.38 µM | > 100 µM | 1.85 µM | > 20.5 µM |  | 

Reference: PubChem BioAssay (NCI)
